Results taken from patent publication US10399940B2, “Substituted pyrrolidines and methods of use” (AbbVie S.à.r.l., priority 2016, dated 2019).
Read-outs that look alike come from different tables or passages of the source.

Molecular target: T1, F508delCFTR (Homo sapiens, UniProt P13569, DEL508-508)
T1 construct: expressed in transfected cells; host or cells: CFBE41o- (human lung derived epithelial cell line), doxycycline-inducible expression
Assay: Cell Surface Expression-Horse Radish Peroxidase (CSE-HRP) assay
Type: cell-based
Conditions: CFBE41o-F508delCFTR-HRP cells; for Maximum % activity (with co-corrector): with co-corrector (2 μM); for Maximum % activity (with co-corrector) / Maximum % activity (without co-corrector): normalized to on-plate positive control, highest concentration 20 μM
Summary of the method: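 Surface F508delCFTR-HRP was read by luminol luminescence after 18–24 h compound exposure at 33 °C, without or with 2 μM co-corrector. Doses were eight 3-fold steps from 20 μM, in doxycycline-induced (0.5 μg/mL, 72 h) CFBE41o- cells. % activity was scaled to the on-plate 2 μM positive control minus DMSO; EC50 came from a variable-slope sigmoid fit.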

[1] = test compound without co-corrector, 18-24 hours at 33° C., read-out: EC50 (without co-corrector)
[2] = with co-corrector (2 μM of 3-[(2R,4R)-4-({[1-(2,2-difluoro-1,3-benzodioxol-5-yl)cyclopropyl]carbonyl}amino)-7-methoxy-3,4-dihydro-2H-chromen-2-yl]benzoic acid), read-out: EC50 (with co-corrector)

T1 sequence (P13569 with tags, fused parts or gaps DEL508-508): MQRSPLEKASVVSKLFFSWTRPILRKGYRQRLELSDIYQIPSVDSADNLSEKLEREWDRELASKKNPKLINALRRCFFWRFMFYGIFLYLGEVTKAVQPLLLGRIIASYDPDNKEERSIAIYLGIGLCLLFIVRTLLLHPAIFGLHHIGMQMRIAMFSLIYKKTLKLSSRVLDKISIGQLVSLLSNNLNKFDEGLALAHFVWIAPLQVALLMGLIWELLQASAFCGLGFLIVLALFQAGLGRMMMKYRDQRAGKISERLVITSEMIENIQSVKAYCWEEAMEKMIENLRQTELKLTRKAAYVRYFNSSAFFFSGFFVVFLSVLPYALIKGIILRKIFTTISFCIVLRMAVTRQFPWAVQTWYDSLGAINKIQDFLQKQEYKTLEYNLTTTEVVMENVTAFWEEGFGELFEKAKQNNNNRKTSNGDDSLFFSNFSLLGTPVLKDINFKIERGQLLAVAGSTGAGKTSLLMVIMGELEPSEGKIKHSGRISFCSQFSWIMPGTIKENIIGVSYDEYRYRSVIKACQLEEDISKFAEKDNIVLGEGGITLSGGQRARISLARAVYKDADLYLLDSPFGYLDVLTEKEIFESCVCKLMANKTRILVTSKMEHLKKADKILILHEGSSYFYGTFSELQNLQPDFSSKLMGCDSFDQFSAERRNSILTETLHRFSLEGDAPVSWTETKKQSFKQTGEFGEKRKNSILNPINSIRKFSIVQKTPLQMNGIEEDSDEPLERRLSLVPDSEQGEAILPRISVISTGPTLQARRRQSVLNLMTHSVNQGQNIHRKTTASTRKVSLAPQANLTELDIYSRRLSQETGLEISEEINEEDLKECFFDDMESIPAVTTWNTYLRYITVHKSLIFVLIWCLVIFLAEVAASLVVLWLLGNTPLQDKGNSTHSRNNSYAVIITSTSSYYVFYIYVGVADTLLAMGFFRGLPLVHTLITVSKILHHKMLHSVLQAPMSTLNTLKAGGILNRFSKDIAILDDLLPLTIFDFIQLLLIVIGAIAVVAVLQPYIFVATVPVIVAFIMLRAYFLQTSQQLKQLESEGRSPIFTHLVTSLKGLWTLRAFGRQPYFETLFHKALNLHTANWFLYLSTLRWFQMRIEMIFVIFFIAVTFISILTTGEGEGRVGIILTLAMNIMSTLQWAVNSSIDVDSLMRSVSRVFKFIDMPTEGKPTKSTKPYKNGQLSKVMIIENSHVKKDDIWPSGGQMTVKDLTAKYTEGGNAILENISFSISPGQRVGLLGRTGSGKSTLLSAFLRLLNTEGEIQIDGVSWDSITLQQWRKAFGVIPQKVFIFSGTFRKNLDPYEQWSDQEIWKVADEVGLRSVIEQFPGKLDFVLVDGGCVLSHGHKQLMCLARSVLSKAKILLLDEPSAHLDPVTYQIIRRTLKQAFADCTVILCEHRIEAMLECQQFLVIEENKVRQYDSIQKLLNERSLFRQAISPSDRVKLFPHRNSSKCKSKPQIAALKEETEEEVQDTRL

SMILES | EC50 [1] | EC50 [2] | Maximum % activity (with co-corrector) | Maximum % activity (without co-corrector)
COc1ccc(Br)cc1CO[C@H]1[C@H](C(C)(C)C)[C@@H](C(=O)O)N(C(=O)[C@@H]2CCC[C@@H](OC)C2)[C@H]1c1ccccc1 [Example 37, (2S,3R,4S,5S)-4-[(5-bromo-2-methoxyphenyl)methoxy]-3-tert-butyl-1-[(1R,3R)-3-methoxycyclohexane-1-carbonyl]-5-phenylpyrrolidine-2-carboxylic acid] | 1000 to 10000 nM | 1000 to 10000 nM | +++ (≥350) | +++ (≥200)
COc1ccc(-c2ccccc2)cc1CO[C@H]1[C@H](C(C)(C)C)[C@@H](C(=O)O)N(C(=O)OC(C)C)[C@H]1c1ccccc1 [Example 38, (2S,3R,4S,5S)-3-tert-butyl-4-[(4-methoxy[1,1′-biphenyl]-3-yl)methoxy]-5-phenyl-1-{[(propan-2-yl)oxy]carbonyl}pyrrolidine-2-carboxylic acid] | 1000 to 10000 nM | 1000 to 10000 nM | +++ (≥350) | ++ (≥100 and <200)
COc1ccc(-c2ccccc2)cc1CO[C@H]1[C@H](C(C)(C)C)[C@@H](C(=O)O)N(C(=O)[C@@H]2CCC[C@@H](OC)C2)[C@H]1c1ccccc1 [Example 39, (2S,3R,4S,5S)-3-tert-butyl-4-[(4-methoxy[1,1′-biphenyl]-3-yl)methoxy]-1-[(1R,3R)-3-methoxycyclohexane-1-carbonyl]-5-phenylpyrrolidine-2-carboxylic acid] | 1000 to 10000 nM | 1000 to 10000 nM | +++ (≥350) | +++ (≥200)
COc1ncc(Br)cc1CO[C@H]1[C@H](C(C)(C)C)[C@@H](C(=O)O)N(C(=O)OC(C)C)[C@H]1c1ccccc1 [Example 40, (2S,3R,4S,5S)-4-[(5-bromo-2-methoxypyridin-3-yl)methoxy]-3-tert-butyl-5-phenyl-1-{[(propan-2-yl)oxy]carbonyl}pyrrolidine-2-carboxylic acid] | 1000 to 10000 nM | 1000 to 10000 nM | +++ (≥350) | ++ (≥100 and <200)
COc1ncc(C(F)(F)F)cc1CO[C@H]1[C@H](C(C)(C)C)[C@@H](C(=O)O)N(C(=O)C2CCCCC2)[C@H]1c1ccccc1 [Example 41, (2S,3R,4S,5S)-3-tert-butyl-1-(cyclohexanecarbonyl)-4-{[2-methoxy-5-(trifluoromethyl)pyridin-3-yl]methoxy}-5-phenylpyrrolidine-2-carboxylic acid] | < 1000 nM | < 1000 nM | +++ (≥350) | ++ (≥100 and <200)
COc1ncc(-c2ccccc2)cc1CO[C@H]1[C@H](C(C)(C)C)[C@@H](C(=O)O)N(C(=O)OC(C)C)[C@H]1c1ccccc1 [Example 42, (2S,3R,4S,5S)-3-tert-butyl-4-[(2-methoxy-5-phenylpyridin-3-yl)methoxy]-5-phenyl-1-{[(propan-2-yl)oxy]carbonyl}pyrrolidine-2-carboxylic acid] | 1000 to 10000 nM | 1000 to 10000 nM | +++ (≥350) | + (<100)
COc1ncc(C2CCCCC2)cc1CO[C@H]1[C@H](C(C)(C)C)[C@@H](C(=O)O)N(C(=O)OC(C)C)[C@H]1c1ccccc1 [Example 43, (2S,3R,4S,5S)-3-tert-butyl-4-[(5-cyclohexyl-2-methoxypyridin-3-yl)methoxy]-5-phenyl-1-{[(propan-2-yl)oxy]carbonyl}pyrrolidine-2-carboxylic acid] | 1000 to 10000 nM | 1000 to 10000 nM | +++ (≥350) | + (<100)
COc1ncc(C2CCCC2)cc1CO[C@H]1[C@H](C(C)(C)C)[C@@H](C(=O)O)N(C(=O)OC(C)C)[C@H]1c1ccccc1 [Example 44, (2S,3R,4S,5S)-3-tert-butyl-4-[(5-cyclopentyl-2-methoxypyridin-3-yl)methoxy]-5-phenyl-1-{[(propan-2-yl)oxy]carbonyl}pyrrolidine-2-carboxylic acid] | 1000 to 10000 nM | 1000 to 10000 nM | +++ (≥350) | + (<100)
